This is an account of results in patent US20250171430A1, “PYRAZOLYL COMPOUNDS AS KV7 CHANNEL ACTIVATORS” (Biohaven Therapeutics Ltd., priority 2022, published 2025).

SMILES strings stand for the structures.

This test deals with T1, Kv7.2/7.3 (Homo sapiens, UniProt O43525+O43526).
T1 construct: Kv7.2 tetracycline-induced, Kv7.3 constitutive
Nature of the test: Kv7.2/7.3 Activation Assay (Thallium Flux Assay). It counts as cell-based. As to conditions: hKV7.2/7.3 cell line; test compound at single concentration of 10 μM; fluorescence at 90 sec normalized to positive control (retigabine, 30 μM). In a few lines:
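Single-point activity at 10 μM (0.1% DMSO, HEPES-buffered saline, pH 7.4) was scored from fluorescence at 90 s relative to 30 μM retigabine. Categories were none <0.15, moderate 0.15-0.7 and high >0.7. Thallium influx after stimulus addition was followed with FluxOR II Green dye in hKv7.2/7.3 cells, Kv7.2 expressed under overnight tetracycline (10 ng/mL) induction.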
Consider `CCOC(=O)Nc1nn(C)c(-c2ccc(F)cc2)c1C1CCC1` [Compound 75, ethyl (4-cyclobutyl-5-(4-fluorophenyl)-1-methyl-1H-pyrazol-3-yl)carbamate], for which the “Kv7.2/7.3 Activity” value is given as “+ (“+” Moderate Activity 0.15-0.7)”. In the case of `O=C(CC1(C(F)(F)F)CC1)Nc1nn(CCO)c(Cc2ccccc2)c1C1CCC1` [Compound 76, N-(5-benzyl-4-cyclobutyl-1-(2-hydroxyethyl)-1H-pyrazol-3-yl)-2-(1-(trifluoromethyl)cyclopropyl)acetamide] it was “++ (“++” High Activity ≥ 0.7)”.

As for `Cn1nc(NC(=O)CC2(C(F)(F)F)CC2)c(C2CCC2)c1CC1CC1` [Compound 79, N-(4-cyclobutyl-5-(cyclopropylmethyl)-1-methyl-1H-pyrazol-3-yl)-2-(1-(trifluoromethyl)cyclopropyl)acetamide], the “Kv7.2/7.3 Activity” value was “++ (“++” High Activity ≥ 0.7)”.

Consider `Cn1nc(NC(=O)CC2CC(F)(F)C2)c(C2CCC2)c1CC1CC1` [Compound 80, N-(4-cyclobutyl-5-(cyclopropylmethyl)-1-methyl-1H-pyrazol-3-yl)-2-(3,3-difluorocyclobutyl)acetamide], for which the “Kv7.2/7.3 Activity” value is given as “++ (“++” High Activity ≥ 0.7)”. In the case of `Cn1nc(NC(=O)CC2(O)CCCC2)c(C2CCC2)c1CC1CC1` [Compound 81, N-(4-cyclobutyl-5-(cyclopropylmethyl)-1-methyl-1H-pyrazol-3-yl)-2-(1-hydroxycyclopentyl)acetamide] it was “+ (“+” Moderate Activity 0.15-0.7)”.

For the compound `Cn1nc(NC(=O)CC2(C(F)(F)F)CCC2)c(C2CCC2)c1-c1ccc(OC(F)(F)F)cc1` [Compound 82, N-(4-cyclobutyl-1-methyl-5-(4-(trifluoromethoxy)phenyl)-1H-pyrazol-3-yl)-2-(1-(trifluoromethyl)cyclobutyl)acetamide], the “Kv7.2/7.3 Activity” value was “++ (“++” High Activity ≥ 0.7)”. Then `Cn1nc(NC(=O)CC2(C(F)(F)F)CCC2)c(C2CCC2)c1-c1ccc(F)cc1` [Compound 83, N-(4-cyclobutyl-5-(4-fluorophenyl)-1-methyl-1H-pyrazol-3-yl)-2-(1-(trifluoromethyl)cyclobutyl)acetamide], with “++ (“++” High Activity ≥ 0.7)”; and `Cn1nc(NC(=O)CC2COC2)c(C2CCC2)c1-c1ccc(OC(F)(F)F)cc1` [Compound 84, N-(4-cyclobutyl-1-methyl-5-(4-(trifluoromethoxy)phenyl)-1H-pyrazol-3-yl)-2-(oxetan-3-yl)acetamide], with “− (“−” No Activity < 0.15)”; and `Cn1nc(NC(=O)CC2COC2)c(C2CCC2)c1-c1ccc(F)cc1` [Compound 85, N-(4-cyclobutyl-5-(4-fluorophenyl)-1-methyl-1H-pyrazol-3-yl)-2-(oxetan-3-yl)acetamide], with “− (“−” No Activity < 0.15)”. Regarding `Cn1nc(NC(=O)CC2COC2)c(C2CCC2)c1-c1cnc(C(F)(F)F)s1` [Compound 86, N-(4-cyclobutyl-1-methyl-5-(2-(trifluoromethyl)thiazol-5-yl)-1H-pyrazol-3-yl)-2-(oxetan-3-yl)acetamide], the “Kv7.2/7.3 Activity” value is “− (“−” No Activity < 0.15)”. With `Cn1nc(NC(=O)CC2(O)CCC2)c(C2CCC2)c1-c1ccc(OC(F)(F)F)cc1` [Compound 87, N-(4-cyclobutyl-1-methyl-5-(4-(trifluoromethoxy)phenyl)-1H-pyrazol-3-yl)-2-(1-hydroxycyclobutyl)acetamide], the “Kv7.2/7.3 Activity” value is “+ (“+” Moderate Activity 0.15-0.7)”.

Take `Cn1nc(NC(=O)CC2(C(F)(F)F)CCC2)c(C2CCC2)c1C1(C(F)(F)F)CCC1` [Compound 88, N-(4-cyclobutyl-1-methyl-5-(1-(trifluoromethyl)cyclobutyl)-1H-pyrazol-3-yl)-2-(1-(trifluoromethyl)cyclobutyl)acetamide]: the “Kv7.2/7.3 Activity” value is given as “++ (“++” High Activity ≥ 0.7)”. In the case of `Cn1nc(NC(=O)CC2(C(F)(F)F)CC2)c(C2CCC2)c1C1(C(F)(F)F)CCC1` [Compound 89, N-(4-cyclobutyl-1-methyl-5-(1-(trifluoromethyl)cyclobutyl)-1H-pyrazol-3-yl)-2-(1-(trifluoromethyl)cyclopropyl)acetamide] it was “++ (“++” High Activity ≥ 0.7)”. In the case of `Cn1nc(NC(=O)Cc2ccc(F)c(F)c2)c(C2CCC2)c1C1(C(F)(F)F)CCC1` [Compound 90, N-(4-cyclobutyl-1-methyl-5-(1-(trifluoromethyl)cyclobutyl)-1H-pyrazol-3-yl)-2-(3,4-difluorophenyl)acetamide] it was “+ (“+” Moderate Activity 0.15-0.7)”. In the case of `Cn1nc(NC(=O)Cc2ccc(F)c(F)c2)c(C2CCC2)c1-c1ccc(F)cc1` [Compound 91, N-(4-cyclobutyl-5-(4-fluorophenyl)-1-methyl-1H-pyrazol-3-yl)-2-(3,4-difluorophenyl)acetamide] it was “+ (“+” Moderate Activity 0.15-0.7)”. `Cn1nc(NC(=O)Cc2ccc(F)c(F)c2)c(C2CCC2)c1-c1ccc(OC(F)(F)F)cc1` [Compound 92, N-(4-cyclobutyl-1-methyl-5-(4-(trifluoromethoxy)phenyl)-1H-pyrazol-3-yl)-2-(3,4-difluorophenyl)acetamide]: the “Kv7.2/7.3 Activity” value is reported as “++ (“++” High Activity ≥ 0.7)”. Then `Cc1c(C2CCC2)c(NC(=O)CC2CC(F)(F)C2)nn1Cc1ccc(F)cc1` [Compound 93, N-(4-cyclobutyl-1-(4-fluorobenzyl)-5-methyl-1H-pyrazol-3-yl)-2-(3,3-difluorocyclobutyl)acetamide], with “+ (“+” Moderate Activity 0.15-0.7)”; and `Cc1c(C2CCC2)c(NC(=O)CC(C)(C)C(F)(F)F)nn1Cc1ccc(F)cc1` [Compound 94, N-(4-cyclobutyl-1-(4-fluorobenzyl)-5-methyl-1H-pyrazol-3-yl)-4,4,4-trifluoro-3,3-dimethylbutanamide], with “− (“−” No Activity < 0.15)”; and `Cc1c(C2CCC2)c(NC(=O)CC2(C(F)(F)F)CC2)nn1Cc1ccc(F)cc1` [Compound 95, N-(4-cyclobutyl-1-(4-fluorobenzyl)-5-methyl-1H-pyrazol-3-yl)-2-(1-(trifluoromethyl)cyclopropyl)acetamide], with “− (“−” No Activity < 0.15)”. In the case of `Cn1nc(NC(=O)CC(C)(C)C(F)(F)F)c(C2CCC2)c1-c1ccc(Cl)s1` [Compound 96, N-(5-(5-chlorothiophen-2-yl)-4-cyclobutyl-1-methyl-1H-pyrazol-3-yl)-4,4,4-trifluoro-3,3-dimethylbutanamide] it was “++ (“++” High Activity ≥ 0.7)”; in that of `Cn1nc(NC(=O)CC(C)(C)C(F)(F)F)c(C2CCC2)c1-c1ccc(F)cc1F` [Compound 97, N-(4-cyclobutyl-5-(2,4-difluorophenyl)-1-methyl-1H-pyrazol-3-yl)-4,4,4-trifluoro-3,3-dimethylbutanamide], “++ (“++” High Activity ≥ 0.7)”. Then `Cn1nc(NC(=O)CC2CC(F)(F)C2)c(C2CCC2)c1-c1ccc(F)cc1F` [Compound 98, N-(4-cyclobutyl-5-(2,4-difluorophenyl)-1-methyl-1H-pyrazol-3-yl)-2-(3,3-difluorocyclobutyl)acetamide], with “++ (“++” High Activity ≥ 0.7)”. Turning to `Cn1nc(NC(=O)C[C@H]2CC2(F)F)c(C2CCC2)c1-c1ccc(F)cc1` [Compound 99, (S)-N-(4-cyclobutyl-5-(4-fluorophenyl)-1-methyl-1H-pyrazol-3-yl)-2-(2,2-difluorocyclopropyl)acetamide], the “Kv7.2/7.3 Activity” value is given as “++ (“++” High Activity ≥ 0.7)”.
